Reference: ChEMBL document CHEMBL3396992, “Synthesis and biological evaluation of pyrazolylthiazole carboxylic acids as potent anti-inflammatory-antimicrobial agents” (2015)
≈ marks a conversion by molar mass, not a printed value. Calls of active or inactive are those of the source. The calls are words filed in the database; no cut-off is given here.

Columns and labels:
Rattus norvegicus [1] = experiment: Antiinflammatory activity against carrageenan-induced paw edema male Wistar albino rat at 50 mg/kg, ip administered 30 mins prior to carrageenan-challenge measured after 2 hrs relative to control; type: functional; settings: route intraperitoneal
Rattus norvegicus [2] = experiment: Antiinflammatory activity against carrageenan-induced paw edema male Wistar albino rat assessed as edema volume at 50 mg/kg, ip administered 30 mins prior to carrageenan-challenge measured after 4 hrs (reference value: 1.88 +/- 0.20 mL); type: functional; settings: route intraperitoneal
Staphylococcus aureus [3] = experiment: Antimicrobial activity against Staphylococcus aureus MTCC 96 assessed as growth inhibition at 4 mg/ml after 24 hrs by agar well diffusion method; type: functional; settings: for zone of inhibition at 4000 µg/mL: MTCC 96, 24 h, read-out: DIZ
Staphylococcus aureus [4] = experiment: Antimicrobial activity against Staphylococcus aureus MTCC 96 assessed as growth inhibition after 24 hrs by agar well diffusion method; type: functional
Candida albicans [5] = experiment: Antimicrobial activity against Candida albicans MTCC 3017 assessed as growth inhibition at 4 mg/ml after 24 hrs by agar well diffusion method; type: functional; settings: MTCC 3017, 24 h, read-out: DIZ
Pseudomonas aeruginosa = settings: MTCC 741, 4 mg/ml
Description: Antimicrobial activity against Pseudomonas aeruginosa MTCC 741 assessed as growth inhibition at 4 mg/ml after 24 hrs by agar well diffusion method

Rattus norvegicus [6] = experiment: Antiinflammatory activity against carrageenan-induced paw edema male Wistar albino rat assessed as edema volume at 50 mg/kg, ip administered 30 mins prior to carrageenan-challenge measured after 2 hrs (reference value: 1.21 +/- 0.16 mL); type: functional; settings: route intraperitoneal
Rattus norvegicus [7] = experiment: Antiinflammatory activity against carrageenan-induced paw edema male Wistar albino rat at 50 mg/kg, ip administered 30 mins prior to carrageenan-challenge measured after 3 hrs relative to control; type: functional; settings: route intraperitoneal
Bacillus subtilis [8] = experiment: Antimicrobial activity against Bacillus subtilis MTCC 121 assessed as growth inhibition at 4 mg/ml after 24 hrs by agar well diffusion method; type: functional; settings: for zone of inhibition at 4000 µg/mL: MTCC 121, 24 h, read-out: DIZ
Candida albicans [9] = experiment: Antimicrobial activity against Candida albicans MTCC 3017 assessed as growth inhibition after 24 hrs by agar well diffusion method; type: functional; settings: MTCC 3017, 24 h
Saccharomyces cerevisiae [10] = experiment: Antimicrobial activity against Saccharomyces cerevisiae MTCC 170 assessed as growth inhibition at 4 mg/ml after 24 hrs by agar well diffusion method; type: functional; settings: for zone of inhibition at 4000 µg/mL: MTCC 170, 24 h, read-out: DIZ
Rattus norvegicus [11] = experiment: Antiinflammatory activity against carrageenan-induced paw edema male Wistar albino rat at 50 mg/kg, ip administered 30 mins prior to carrageenan-challenge measured after 1 hr relative to control; type: functional; settings: route intraperitoneal
Rattus norvegicus [12] = experiment: Antiinflammatory activity against carrageenan-induced paw edema male Wistar albino rat assessed as edema volume at 50 mg/kg, po administered 30 mins prior to carrageenan-challenge measured after 1 hr (reference value: 1.11 +/- 0.12 mL); type: functional
Rattus norvegicus [13] = experiment: Antiinflammatory activity against carrageenan-induced paw edema male Wistar albino rat assessed as edema volume at 50 mg/kg, ip administered 30 mins prior to carrageenan-challenge measured after 3 hrs (reference value: 1.73 +/- 0.09 mL); type: functional; settings: route intraperitoneal
Escherichia coli = experiment: Antimicrobial activity against Escherichia coli MTCC 1652 assessed as growth inhibition at 4 mg/ml after 24 hrs by agar well diffusion method; type: functional, organism-based
Rattus norvegicus [14] = experiment: Antiinflammatory activity against carrageenan-induced paw edema male Wistar albino rat at 50 mg/kg, ip administered 30 mins prior to carrageenan-challenge measured after 4 hrs relative to control; type: functional; settings: route intraperitoneal
Bacillus subtilis [15] = experiment: Antimicrobial activity against Bacillus subtilis MTCC 121 assessed as growth inhibition after 24 hrs by agar well diffusion method; type: functional
Saccharomyces cerevisiae [16] = experiment: Antimicrobial activity against Saccharomyces cerevisiae MTCC 170 assessed as growth inhibition after 24 hrs by agar well diffusion method; type: functional

| SMILES | Activity (Rattus norvegicus [1]) | Activity (Rattus norvegicus [2]) | zone of inhibition at 4000 µg/mL (Staphylococcus aureus [3]) | MIC (Staphylococcus aureus [4]; MTCC 96, 24 h) | zone of inhibition at 4000 µg/mL (Candida albicans [5]) | DIZ (Pseudomonas aeruginosa) | Activity (Rattus norvegicus [6]) | Activity (Rattus norvegicus [7]) | zone of inhibition at 4000 µg/mL (Bacillus subtilis [8]) | MIC (Candida albicans [9]) | zone of inhibition at 4000 µg/mL (Saccharomyces cerevisiae [10]) | Activity (Rattus norvegicus [11]) | Activity (Rattus norvegicus [12]) | Activity (Rattus norvegicus [13]) | diameter of the inhibition zone (DIZ) (Escherichia coli) | Activity (Rattus norvegicus [14]) | MIC (Bacillus subtilis [15]; MTCC 121, 24 h) | MIC (Saccharomyces cerevisiae [16]; MTCC 170, 24 h) | diameter of the inhibition zone (DIZ) (Staphylococcus aureus [3]) | MIC (Staphylococcus aureus [4]) | other results |
| --- | --- | --- | --- | --- | --- | --- | --- | --- | --- | --- | --- | --- | --- | --- | --- | --- | --- | --- | --- | --- | --- |
| O=C(O)c1sc(-c2cn(-c3ccccc3)nc2-c2ccc(F)cc2)nc1-c1ccccc1 | 81.81% | 0.18 mL | 20.3 mm | 25 µg/mL (≈ 56.6 µM) | 21.3 mm | inactive | 0.22 mL | 78.61% | 18.3 mm | 25 µg/mL (≈ 56.6 µM) | > 20 mm | 87.38% | 0.14 mL | 0.37 mL | inactive | 90.42% | 25 µg/mL (≈ 56.6 µM) | 50 µg/mL (≈ 113 µM) | – | – | – |
| COc1ccc(-c2nn(-c3ccccc3)cc2-c2nc(-c3ccc(Cl)cc3)c(C(=O)O)s2)cc1 | 78.51% | 0.2 mL | 24.6 mm | 6.25 µg/mL (≈ 12.8 µM) | 27.6 mm | inactive | 0.26 mL | 83.81% | 29.6 mm | 6.25 µg/mL (≈ 12.8 µM) | 27.6 mm | 83.78% | 0.18 mL | 0.28 mL | inactive | 89.36% | 6.25 µg/mL (≈ 12.8 µM) | 6.25 µg/mL (≈ 12.8 µM) | – | – | – |
| O=C(O)c1sc(-c2cn(-c3ccccc3)nc2-c2ccc(F)cc2)nc1-c1ccc(F)cc1 | 52.89% | 0.47 mL | 15.3 mm | 50 µg/mL (≈ 109 µM) | 19.6 mm | inactive | 0.57 mL | 64.73% | 17.6 mm | 25 µg/mL (≈ 54.4 µM) | 17.6 mm | 79.27% | 0.23 mL | 0.61 mL | inactive | 75% | 50 µg/mL (≈ 109 µM) | 25 µg/mL (≈ 54.4 µM) | – | – | – |
| CCOC(=O)c1sc(-c2cn(-c3ccccc3)nc2-c2ccccc2)nc1-c1ccc(F)cc1 | 81.81% | 0.42 mL | – | – | 18.6 mm | inactive | 0.22 mL | 82.08% | – | 25 µg/mL (≈ 53.2 µM) | – | 73.87% | 0.29 mL | 0.31 mL | inactive | 88.29% | – | – | inactive | inactive | diameter of the inhibition zone (DIZ) (Bacillus subtilis [8]): inactive; diameter of the inhibition zone (DIZ) (Saccharomyces cerevisiae [10]): inactive; MIC (Bacillus subtilis [15]): inactive; MIC (Saccharomyces cerevisiae [16]): inactive |
| O=C(O)c1sc(-c2cn(-c3ccccc3)nc2-c2ccc(F)cc2)nc1-c1ccc(Cl)cc1 | 47.1% | 0.37 mL | 21.6 mm | 25 µg/mL (≈ 52.5 µM) | 20.6 mm | inactive | 0.64 mL | 56.14% | 18.3 mm | 25 µg/mL (≈ 52.5 µM) | 20.6 mm | 70.27% | 0.33 mL | 0.75 mL | inactive | 80.31% | 25 µg/mL (≈ 52.5 µM) | 25 µg/mL (≈ 52.5 µM) | – | – | – |
| CCOC(=O)c1sc(-c2cn(-c3ccccc3)nc2-c2ccc(OC)cc2)nc1-c1ccc(F)cc1 | 85.12% | 0.37 mL | – | – | 24.6 mm | inactive | 0.18 mL | 82.08% | 20.6 mm | 12.5 µg/mL (≈ 25 µM) | – | 83.78% | 0.18 mL | 0.31 mL | inactive | 80.31% | 25 µg/mL (≈ 50 µM) | – | inactive | inactive | diameter of the inhibition zone (DIZ) (Saccharomyces cerevisiae [10]): inactive; MIC (Saccharomyces cerevisiae [16]): inactive |
| CCOC(=O)c1sc(-c2cn(-c3ccccc3)nc2-c2ccc(OC)cc2)nc1-c1ccc(Cl)cc1 | 68.59% | 0.53 mL | – | – | 14.3 mm | inactive | 0.38 mL | 78.03% | 14.3 mm | 50 µg/mL (≈ 96.9 µM) | – | 86.48% | 0.15 mL | 0.38 mL | inactive | 71.8% | 50 µg/mL (≈ 96.9 µM) | – | inactive | inactive | diameter of the inhibition zone (DIZ) (Saccharomyces cerevisiae [10]): inactive; MIC (Saccharomyces cerevisiae [16]): inactive |
| O=C(O)c1sc(-c2cn(-c3ccccc3)nc2-c2ccc(Cl)cc2)nc1-c1ccc(F)cc1 | 72.72% | 0.38 mL | – | – | 12 mm | inactive | 0.33 mL | 71.67% | – | 50 µg/mL (≈ 105 µM) | 24.6 mm | 73.87% | 0.29 mL | 0.49 mL | inactive | 79.78% | – | 12.5 µg/mL (≈ 26.3 µM) | inactive | inactive | diameter of the inhibition zone (DIZ) (Bacillus subtilis [8]): inactive; MIC (Bacillus subtilis [15]): inactive |
| O=C(O)c1sc(-c2cn(-c3ccccc3)nc2-c2ccccc2)nc1-c1ccccc1 | 67.76% | 0.3 mL | 24.6 mm | 12.5 µg/mL (≈ 29.5 µM) | 17.6 mm | inactive | 0.39 mL | 83.81% | 18.6 mm | 50 µg/mL (≈ 118 µM) | 23.6 mm | 87.37% | 0.24 mL | 0.28 mL | inactive | 84.04% | 25 µg/mL (≈ 59 µM) | 12.5 µg/mL (≈ 29.5 µM) | – | – | – |
